According to US20240025862A1, “SUBSTITUTED N-PHENYLURACILS AND SALTS THEREOF, AND USE THEREOF AS HERBICIDAL ACTIVE SUBSTANCES” (Bayer Aktiengesellschaft, priority 2020, published 2024):

Legend:
Type in all cases: in vivo
[1] = system: Abutilon theophrasti (ABUTH); assay: Post-emergence herbicidal action, greenhouse pot test; settings: rated visually after about 3 weeks vs untreated controls, 100% = plants have died
Summary of the method: (§1)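 Greenhouse-grown weeds in sandy loam were sprayed post-emergence at the one-leaf stage, 2–3 weeks after sowing. Compounds were formulated as WP or EC in water with 0.5% additive at 600 l/ha, at rates of 20 g/ha or less. Visual rating after about 3 weeks used a scale from 0% (like untreated control) to 100% (plants dead).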

[2] = system: Amaranthus retroflexus (AMARE); assay: as above; settings: rated visually after about 3 weeks vs untreated controls, 100% = plants have died
Summary of the method: as §1

[3] = system: Avena fatua (AVEFA); assay: as above; settings: 20 g/ha, rated visually after about 3 weeks vs untreated controls, 100% = plants have died
Summary of the method: as §1

[4] = system: Pharbitis purpurea (PHBPU); assay: as above
Summary of the method: as §1

[5] = system: Polygonum convolvulus (POLCO); assay: as above
Summary of the method: as §1

[6] = system: Veronica persica (VERPE); assay: as above
Summary of the method: as §1

[7] = system: Viola tricolor (VIOTR); assay: as above
Summary of the method: as §1

[8] = system: Alopecurus myosuroides (ALOMY); assay: Post-emergence herbicidal action, greenhouse pot test (also comparative test C); settings: rated visually after about 3 weeks vs untreated controls, 100% = plants have died
Summary of the method: (§2)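 Greenhouse pot plants in sandy loam were sprayed post-emergence at the one-leaf stage (2–3 weeks after sowing) with WP or EC formulations plus 0.5% additive at 600 l/ha water. Activity was rated visually after about 3 weeks versus untreated controls (100% = dead, 0% = like control); rates were 20 g/ha or less, and 5 g/ha or less in the comparative test.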

[9] = system: Echinochloa crus-galli (ECHCG); assay: as above
Summary of the method: as §2

[10] = system: Matricaria inodora (MATIN); assay: as above
Summary of the method: as §2

[11] = system: Setaria viridis (SETVI); assay: as above
Summary of the method: as §2

[12] = system: Triticum aestivum (TRZAS); assay: Post-emergence crop plant compatibility, greenhouse pot test; settings: vs untreated controls
Summary of the method: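 Percent crop injury was judged by eye roughly three weeks after treatment, relative to untreated plants, where 100% meant death. Application was a post-emergence spray at the one-leaf stage, 600 l/ha water volume with 0.5% additive; letters a, b, c denote differing dose rates.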

[13] = system: Oryza sativa (ORYSA); assay: Post-emergence crop plant compatibility, greenhouse pot test (also comparative test C); settings: for Post-emergence action against ORYSA (crop plant compatibility): vs untreated controls
Summary of the method: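 Rice and other crops sprayed post-emergence at one-leaf stage (2–3 weeks after sowing) with WP or EC formulations plus 0.5% additive at 600 l/ha water. Visual rating about 3 weeks later versus untreated controls (100% = dead, 0% = like control); suffixes a–c denote different doses.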

For `Cn1c(C(F)(F)F)cc(=O)n(-c2cc(Oc3ccccc3OCC(=O)OCC#N)c(Br)cc2F)c1=O` [I.8-176, Cyanomethyl (2-{2-bromo-4-fluoro-5-[3-methyl-2,6-dioxo-4-(trifluoromethyl)-3,6-dihydropyrimidin-1(2H)-yl]phenoxy}phenoxy)acetate], the pest or weed control at 1.25 g/ha ([1]; Abutilon theophrasti, 504 h, 1.25 g/ha, read-out: Post-emergence action at 1.25 g/ha against ABUTH in %) was 100%, the pest or weed control at 5 g/ha ([1]; Abutilon theophrasti, 504 h, 5 g/ha, read-out: Post-emergence action at 5 g/ha against ABUTH in %) was 100% and the pest or weed control at 20 g/ha ([1]; Abutilon theophrasti, 504 h, 20 g/ha, read-out: Post-emergence action at 20 g/ha against ABUTH in %) was 100%. The pest or weed control at 1.25 g/ha ([2]; Amaranthus retroflexus, 504 h, 1.25 g/ha, read-out: Post-emergence action at 1.25 g/ha against AMARE in %) was 100%, the pest or weed control at 5 g/ha ([2]; Amaranthus retroflexus, 504 h, 5 g/ha, read-out: Post-emergence action at 5 g/ha against AMARE in %) was 100% and the pest or weed control at 20 g/ha ([2]; Amaranthus retroflexus, 504 h, 20 g/ha, read-out: Post-emergence action at 20 g/ha against AMARE in %) was 100%. For the same compound, the pest or weed control at 20 g/ha ([3]; Avena fatua, 504 h, read-out: Post-emergence action at 20 g/ha against AVEFA in %) was 80%, the pest or weed control at 1.25 g/ha ([4]; Ipomoea purpurea, 504 h, dosage 1.25 g/ha, read-out: Post-emergence action against PHBPU in %) was 80% and the pest or weed control at 5 g/ha ([4]; Ipomoea purpurea, 504 h, dosage 5 g/ha, read-out: Post-emergence action against PHBPU in %) was 80%. It also gave a pest or weed control at 20 g/ha ([4]; Ipomoea purpurea, 504 h, dosage 20 g/ha, read-out: Post-emergence action against PHBPU in %) of 100%, a pest or weed control at 5 g/ha ([5]; Fallopia convolvulus, 504 h, dosage 5 g/ha, read-out: Post-emergence action against POLCO in %) of 80% and a pest or weed control at 20 g/ha ([5]; Fallopia convolvulus, 504 h, dosage 20 g/ha, read-out: Post-emergence action against POLCO in %) of 100%. For the same compound, the pest or weed control at 1.25 g/ha ([6]; Veronica persica, 504 h, 1.25 g/ha, read-out: Post-emergence action against VERPE) was 100%, the pest or weed control at 5 g/ha ([6]; Veronica persica, 504 h, 5 g/ha, read-out: Post-emergence action against VERPE) was 100% and the pest or weed control at 20 g/ha ([6]; Veronica persica, 504 h, 20 g/ha, read-out: Post-emergence action against VERPE) was 100%. The pest or weed control at 1.25 g/ha ([7]; Viola tricolor, 504 h, 1.25 g/ha, read-out: Post-emergence action against VIOTR) was 90%, the pest or weed control at 5 g/ha ([7]; Viola tricolor, 504 h, 5 g/ha, read-out: Post-emergence action against VIOTR) was 100% and the pest or weed control at 20 g/ha ([7]; Viola tricolor, 504 h, 20 g/ha, read-out: Post-emergence action against VIOTR) was 100%. It also gave a pest or weed control at 5 g/ha ([8]; Alopecurus myosuroides, 504 h, 5 g/ha, read-out: Post-emergence action at 5 g/ha against ALOMY in %) of 80%, a pest or weed control at 20 g/ha ([8]; Alopecurus myosuroides, 504 h, 20 g/ha, read-out: Post-emergence action at 20 g/ha against ALOMY in %) of 100% and a pest or weed control at 5 g/ha ([9]; Echinochloa crus-galli, 504 h, dosage 5 g/ha, read-out: Post-emergence action against ECHCG in %) of 100%. It also gave a pest or weed control at 20 g/ha ([9]; Echinochloa crus-galli, 504 h, dosage 20 g/ha, read-out: Post-emergence action against ECHCG in %) of 100%, a pest or weed control at 5 g/ha ([10]; Tripleurospermum inodorum, 504 h, dosage 5 g/ha, read-out: Post-emergence action against MATIN in %) of 100% and a pest or weed control at 20 g/ha ([10]; Tripleurospermum inodorum, 504 h, dosage 20 g/ha, read-out: Post-emergence action against MATIN in %) of 100%. For the same compound, the pest or weed control at 20 g/ha ([11]; Setaria viridis, 504 h, 20 g/ha, read-out: Post-emergence action against SETVI) was 100%, the pest or weed control at 1.25 g/ha ([11]; Setaria viridis, 504 h, dosage 1.25 g/ha, read-out: Post-emergence action against SETVI in %) was 100% and the pest or weed control at 5 g/ha ([11]; Setaria viridis, 504 h, dosage 5 g/ha, read-out: Post-emergence action against SETVI in %) was 100%. The “Post-emergence action against TRZAS (crop plant compatibility)” value (“Post-emergence action against TRZAS” for short) ([12]; 1.25 g/ha) was 0%, the “Post-emergence action against TRZAS” value ([12]; 5 g/ha) was 20% and the “Post-emergence action against ORYSA (crop plant compatibility)” value ([13]; 1.25 g/ha) was 0%. For the same compound, the “Post-emergence action against ORYSA (crop plant compatibility)” value ([13]; 5 g/ha) was 20%.

`Cn1c(C(F)(F)F)cc(=O)n(-c2cc(Oc3ccccc3OCC(=O)OCC[N+](=O)[O-])c(Br)cc2F)c1=O` [I.8-183] was tested, and the “Post-emergence action at 5 g/ha against ABUTH in %” value ([1]; 5 g/ha) was 100%, the “Post-emergence action at 20 g/ha against ABUTH in %” value ([1]; 20 g/ha) was 100% and the “Post-emergence action at 1.25 g/ha against AMARE in %” value ([2]; 1.25 g/ha) was 100%. For the same compound, the “Post-emergence action at 5 g/ha against AMARE in %” value ([2]; 5 g/ha) was 100%, the “Post-emergence action at 20 g/ha against AMARE in %” value ([2]; 20 g/ha) was 100% and the “Post-emergence action at 20 g/ha against AVEFA in %” value [3] was 100%. The “Post-emergence action against PHBPU in %” value ([4]; dosage 5 g/ha) was 100%, the “Post-emergence action against PHBPU in %” value ([4]; dosage 20 g/ha) was 100% and the “Post-emergence action against POLCO in %” value ([5]; dosage 5 g/ha) was 100%. For the same compound, the “Post-emergence action against POLCO in %” value ([5]; dosage 20 g/ha) was 100%, the “Post-emergence action against VERPE” value ([6]; 5 g/ha) was 100% and the “Post-emergence action against VERPE” value ([6]; 20 g/ha) was 100%. The “Post-emergence action against VIOTR” value ([7]; 1.25 g/ha) was 100%, the “Post-emergence action against VIOTR” value ([7]; 5 g/ha) was 100% and the “Post-emergence action against VIOTR” value ([7]; 20 g/ha) was 100%. For the same compound, the “Post-emergence action at 5 g/ha against ALOMY in %” value ([8]; 5 g/ha) was 80%, the “Post-emergence action at 20 g/ha against ALOMY in %” value ([8]; 20 g/ha) was 100% and the “Post-emergence action against ECHCG in %” value ([9]; dosage 5 g/ha) was 100%. The “Post-emergence action against ECHCG in %” value ([9]; dosage 20 g/ha) was 100%, the “Post-emergence action against MATIN in %” value ([10]; dosage 5 g/ha) was 80% and the “Post-emergence action against MATIN in %” value ([10]; dosage 20 g/ha) was 100%. The “Post-emergence action against SETVI” value ([11]; 20 g/ha) was 100%, the “Post-emergence action against SETVI in %” value ([11]; dosage 1.25 g/ha) was 100% and the “Post-emergence action against SETVI in %” value ([11]; dosage 5 g/ha) was 100%. For the same compound, the “Post-emergence action against TRZAS” value ([12]; 1.25 g/ha) was 0%, the “Post-emergence action against TRZAS” value ([12]; 5 g/ha) was 20% and the “Post-emergence action against ORYSA (crop plant compatibility)” value ([13]; 1.25 g/ha) was 0%. The “Post-emergence action against ORYSA (crop plant compatibility)” value ([13]; 5 g/ha) was 0% and the “Post-emergence action against ORYSA in %” value ([13]; 20 g/ha, crop plant compatibility) was 0%.

With `CCOCCOC(=O)COc1ccccc1Oc1cc(-n2c(=O)cc(C(F)(F)F)n(C)c2=O)c(F)cc1C#N` [I.9-2] the “Post-emergence action at 1.25 g/ha against ABUTH in %” value ([1]; 1.25 g/ha) was 100%, the “Post-emergence action at 5 g/ha against ABUTH in %” value ([1]; 5 g/ha) was 100% and the “Post-emergence action at 20 g/ha against ABUTH in %” value ([1]; 20 g/ha) was 100%. For the same compound, the “Post-emergence action at 1.25 g/ha against AMARE in %” value ([2]; 1.25 g/ha) was 100%, the “Post-emergence action at 5 g/ha against AMARE in %” value ([2]; 5 g/ha) was 100% and the “Post-emergence action at 20 g/ha against AMARE in %” value ([2]; 20 g/ha) was 100%. The “Post-emergence action at 20 g/ha against AVEFA in %” value [3] was 90%, the “Post-emergence action against PHBPU in %” value ([4]; dosage 1.25 g/ha) was 100% and the “Post-emergence action against PHBPU in %” value ([4]; dosage 5 g/ha) was 100%. For the same compound, the “Post-emergence action against PHBPU in %” value ([4]; dosage 20 g/ha) was 100%, the “Post-emergence action against POLCO in %” value ([5]; dosage 5 g/ha) was 100% and the “Post-emergence action against POLCO in %” value ([5]; dosage 20 g/ha) was 100%. The “Post-emergence action against VERPE” value ([6]; 1.25 g/ha) was 100%, the “Post-emergence action against VERPE” value ([6]; 5 g/ha) was 100% and the “Post-emergence action against VERPE” value ([6]; 20 g/ha) was 100%. For the same compound, the “Post-emergence action against VIOTR” value ([7]; 1.25 g/ha) was 100%, the “Post-emergence action against VIOTR” value ([7]; 5 g/ha) was 100% and the “Post-emergence action against VIOTR” value ([7]; 20 g/ha) was 100%. The “Post-emergence action at 5 g/ha against ALOMY in %” value ([8]; 5 g/ha) was 80%, the “Post-emergence action at 20 g/ha against ALOMY in %” value ([8]; 20 g/ha) was 100% and the “Post-emergence action at 1.25 g/ha against ECHCG in %” value ([9]; 1.25 g/ha, rated visually after about 3 weeks vs untreated controls, 100% = plants have died) was 80%. The “Post-emergence action against ECHCG in %” value ([9]; dosage 5 g/ha) was 100%, the “Post-emergence action against ECHCG in %” value ([9]; dosage 20 g/ha) was 100% and the “Post-emergence action against MATIN in %” value ([10]; dosage 5 g/ha) was 100%. The “Post-emergence action against MATIN in %” value ([10]; dosage 20 g/ha) was 100%, the “Post-emergence action against SETVI” value ([11]; 20 g/ha) was 100% and the “Post-emergence action against SETVI in %” value ([11]; dosage 1.25 g/ha) was 100%. The “Post-emergence action against SETVI in %” value ([11]; dosage 5 g/ha) was 100%, the “Post-emergence action against TRZAS” value ([12]; 1.25 g/ha) was 20% and the “Post-emergence action against ORYSA (crop plant compatibility)” value ([13]; 1.25 g/ha) was 0%.
